Activity calls are given as the source filed them. The calls are words filed in the database; no cut-off is given here.
Tests used:
[1] = tested on: Rattus norvegicus; experiment: Decrease in urinary excretion of thromboxane B2 in adenine rich diet fed LWH:Wistar rat at […], ip administered from day 7 to day 12 of adenine ingestion; assay type: functional, Urine; set-up: scale not given: the % may be the effect or the level left
[2] = tested on: Rattus norvegicus; experiment: Effect on urinary excretion of prostaglandin in adenine rich diet fed LWH:Wistar rat assessed as urine TXB2 level per 24 hrs at […], ip administered from day 7 to day 12 of adenine ingestion; assay type: functional
[3] = tested on: Rattus norvegicus; experiment: Increase in urinary excretion of prostaglandin E2 in adenine rich diet fed LWH:Wistar rat at […], ip administered from day 7 to day 12 of adenine ingestion; assay type: functional, organism-based; conditions: Urine
[4] = tested on: Rattus norvegicus; experiment: Protection against renal failure in adenine rich diet fed LWH:Wistar rat up to […], ip administered once daily from day 7 to day 12 of adenine ingestion; assay type: functional, organism-based
[5] = tested on: Rattus norvegicus; experiment: Effect on urinary excretion of prostaglandin in adenine rich diet fed LWH:Wistar rat assessed as urine 6-keto-PGF1-alpha level per 24 hrs at […], ip administered from day 7 to day 12 of adenine ingestion; assay type: functional
[6] = tested on: Rattus norvegicus; experiment: Effect on urinary excretion of prostaglandin in adenine rich diet fed LWH:Wistar rat assessed as urine prostaglandin E2 level per 24 hrs at […], ip administered from day 7 to day 12 of adenine ingestion; assay type: functional

O=C(/C=C/c1ccc(O)c2c1[C@H](C(=O)O[C@H](Cc1ccc(O)c(O)c1)C(=O)[O-])[C@@H](c1ccc(O)c(O)c1)O2)O[C@H](Cc1ccc(O)c(O)c1)C(=O)[O-].[Mg+2] [MAGNESIUM LITHOSPERMATE B]
Activity [1]: 36%
Activity [2]: 23.3 ng
Activity [3]: Active
Activity [4]: Active
Activity [5]: 20.7 ng
Activity [6]: 72.5 ng

From ChEMBL document CHEMBL1151155, “Effect of magnesium lithospermate B on urinary prostaglandins in rats with renal failure” (1990)
